Results on three compounds are retold here after patent publication US10717946B2, “Water soluble essential oils and their use” (KIMBERLY-CLARK WORLDWIDE, INC., priority 2012, dated 2020).

The subject of the test is C. albicans SC5314. In kind it is cell-based, Candida albicans. How it is done: Based on the results in FIG. 3, single cell suspensions of SC5314 was prepared as follows. Stock culture of C. albicans SC5314 was streaked onto YPD agar (YPDA) and incubated at 30° C. overnight. Single colonies were subcultured in YPD broth (YPDB) and incubated at 30° C., 200 rpm overnight. Overnight culture in YPDB was subcultured in YPD broth again and incubated at 30° C., 200 rpm 48 h. Cells were collected by centrifugation (4000 g 10 min) at 4° C., washed three times with sterile water, and then resuspended in sterile water at a final concentration of 10^9 colony-forming unit/ml (cfu/ml). The suspension was stored at 4° C. at least 1 d, then subcultured into YPDB to a final concentration of 10^6 cfu/ml. After 48 h incubation, cell suspension was examined under the microscope for single cell percentage. When the single cell percentage exceeded 80%, cells were collected and washed three times with water, then resuspended in water to a final concentration of 10^9 cfu/ml, and stored at 4° C. for no more than a month.
Two approaches were taken to determine the percentage of cells with germ tubes formed (GTF %). One way was to count the total cells at the start of incubation, and count the ungerminated cells after incubation, then calculate the GTF % as (1−ungerminated cells/total cells at 0 h)*100. Another way was to store the samples at 15° C. for 20 h after incubation, then count the germinated cells and total cells after disaggregation, then calculated the GTF % as (germinated cells/total cells after storage)*100. […] Therefore, for practical purposes, the GTF % was determined by the first method, that is, GTF %=(1−ungerminated cells/total cells at 0 h)*100, for the in vitro screening discussed herein.
A screening medium, containing 11 mM imidazole buffer, 3 m MMgSO4, and 2.6 mM N-acetyl-D-glucosamine (GlcNAc) has been used to study the effect of farnesol analogs on the germ tube formation of C. albicans. Here, the germ tube formation of C. albicans in modified screening media was assessed with various concentrations of imidazole buffer (10 mM, 30 mM, and 50 mM) and MgSO4 (0.5 mM, 1.5 mM, and 3 mM). […] It took 2 h to 3 h for the GTF % to reach above 80%. For practical purposes, the screening medium, containing 11 mM imidazole buffer, 0.5 m MMgSO4, and 2.6 mM N-acetyl-D-glucosamine (GlcNAc) was adopted for in vitro screening the quorum sensing inhibitory effect of farnesol compounds and botanicals. […]

The structures appear in SMILES notation. Like-named read-outs stand apart in the source and are kept apart here.

Take `Cc1ccc(C(C)C)c(O)c1` [Thymol]: the “GTF % (mean ± SEM, n = 3)” value (1 mM) was found to be 43.7 ± 5.2%.

Consider `C=CCCCCCCCC` [1-Decene], for which the “GTF %control-GTF %sample (mean ± SD, n = 3)” value reads like this: (0.1%) 0%; (0.2%) 35.2 ± 5.2 %.

Consider `CC(C)=CCCC(C)=CCCC(C)=CCO` [farnesol], for which the “GTF %control-GTF %sample (mean ± SD, n = 3)” value ((0.0022%)) was found to be 25.0 ± 4.1%.
